Structures are written as SMILES.

Holding throughout (type): cell-based, Human
The subject of experiment [1] is Jurkat cells. Nature of the experiment: Cell proliferation rate / viability of drug-treated Jurkat cells (trypan blue count). The following applies: for cell viability: 24-hour viability observation. On the procedure: During experiments, cells were re-suspended in phenol red-free medium (11835-063, GIBCO) in the presence or absence of a drug, either methotrexate hydrate (MTX; […], SIGMA) or 2-deoxy-D-glucose (2DG; […], SIGMA), at a density of 1×10^6 cells/ml. Cell viability was estimated by using a hemocytometer to count trypan blue-stained cells. Relative cell count, presented in FIGS. 6B and 6E-6F, is a ratio of the cell count at t=24 hours to the initial cell count.

The test system of experiment [2] is Jurkat cells. Nature of the experiment: Extracellular ROS level of drug-treated Jurkat cells measured with the nanowire biosensor. Particulars: t=6 hours, normalized by the number of live cells. On the procedure: For measurements of cellular metabolites/activity, cells were cultured in the chip, namely, in the culture compartment thereof (see, for example, FIG. 1A), while placing the chip in an incubator during measurements. A sample was introduced to the sensing compartment at 20 μl min^-1 by using a syringe pump. Human T lymphocytes, Jurkat (TIB-152, ATCC), were cultured and incubated at 37° C. under a humidified 5% CO2 atmosphere. The culture medium used was RPMI 1640 medium (52400, GIBCO) with 10% fetal bovine serum (FBS; 04-001-1A, Biological Industry) and 1% penicillin/streptomycin (15140, GIBCO). During experiments, cells were re-suspended in phenol red-free medium (11835-063, GIBCO) in the presence or absence of a drug, either methotrexate hydrate (MTX; […], SIGMA) or 2-deoxy-D-glucose (2DG; […], SIGMA), at a density of 1×10^6 cells/ml. Cellular samples were dispensed into the wells of the sensing chip (see FIGS. 1A and 1B) in an incubator. 24-hour monitoring of metabolic activity of drug-treated Jurkat cells by measuring extracellular ROS levels using the nanowire biosensor, was performed and the obtained data is presented in FIGS. 6A-G. Measured ROS levels were normalized by the number of live cells.

In experiment [3] the test system is Jurkat cells. The experiment in a line: pH sensing of drug-treated Jurkat cells (reductant-added medium). Particulars: compared with the control. The text has this:
A conversion of the modified FET into a pH sensor was achieved by using a reductant-added solution. After supplementing a culture medium with 0.1% v/v DEHA to reduce the modified FET surface, surface proton density varied by protonation or by deprotonation dominantly changes the measured current.
For pH sensing, 0.1% v/v DEHA was supplemented in the sensing medium to reduce the 9,10-anthraquinone monolayer on the FET surface to obtain 9,10-dihydroxyanthracene (see also FIG. 1d) and H2O2 simultaneously. Therefore, no significant amount of H2O2 in a DEHA-supplemented medium altered a measured signal. As a result, surface proton density, varied by protonation or by deprotonation, dominantly changes an acquired signal.

Experiment [4] has as its system Jurkat cells. The experiment in a line: Extracellular lactate level of drug-treated Jurkat cells (lactate oxidase, nanowire biosensor). Particulars: after 24 hours. The procedure:
For lactate sensing, 0.1 unit/ml of lactate oxidase (LOX; L0638, SIGMA) was added in phenol red-free medium to convert lactate to pyruvate and H2O2 before lactate reaches the FET array (as depicted in FIG. 1D).
During experiments, cells were re-suspended in phenol red-free medium (11835-063, GIBCO) in the presence or absence of a drug, either methotrexate hydrate (MTX; M8407, SIGMA) or 2-deoxy-D-glucose (2DG; D6134, SIGMA), at a density of 1×10^6 cells/ml.
The correlation between extracellular lactate level of 2DG-treated Jurkat cells and a resultant cell proliferation rate after 24 hours was investigated.

`O=CC[C@@H](O)[C@H](O)[C@H](O)CO` [2DG, 2-deoxy-D-glucose]: the cell viability result in experiment [1] was “anti-proliferative activity”. Also, in experiment [1] (after 24 hours, relative cell count), the cell proliferation rate result was “reduced proliferation rate”. The ROS level result in experiment [2] is reported as “noticeable decrease”. For the same compound, the “pH of cultured cells” value in experiment [3] is reported as “more basic than the control”. For the same compound, the cellular lactate secretion entry in experiment [4] was “decreased”.

On to `CN(Cc1cnc2nc(N)nc(N)c2n1)c1ccc(C(=O)N[C@@H](CCC(=O)O)C(=O)O)cc1` [MTX, methotrexate hydrate], for which the cell viability entry in experiment [1] is “anti-proliferative activity”. Moreover, the ROS level entry in experiment [2] is listed as “noticeable decrease”.

The values above are taken from patent US10274456B2, “Method and system for sensing” (Ramot at Tel-Aviv University Ltd., priority 2013, dated 2019).
